Assay results as given in paper PMC7894522, “Structure Based Design of Bicyclic Peptide Inhibitors of RbAp48” (Angewandte Chemie (International Ed. in English), 2020).
Starred links: 1 amine or outer side, 2 acyl side, 3 side chain; linkers in the order of their positions; H or OH if unused. Positions of bridges follow the written chain, without caps; N, C: chain ends. Residues, ends and D or L forms follow the SMILES beside them. TBMB = c1c(C[*:1])cc(C[*:3])cc1C[*:2]; mXylylene = c1cc(C[*:1])cc(C[*:2])c1; oXylylene = c1ccc(C[*:2])c(C[*:1])c1; pXylylene = c1cc(C[*:2])ccc1C[*:1]; X4 = N#Cc1cc(C[*:1])cc(C[*:2])c1; X5 = Brc1cc(C[*:1])cc(C[*:2])c1

These compounds were tested against RbAp48 (Homo sapiens, UniProt Q09028) (assay: Competitive fluorescence polarization (FP) assay using complex of peptide 1 and RbAp48). Details: Supplemental Table 2; competitive FP, tracer 1 nM, RbAp48 15 nM, pH 7.5, 30 min room temperature; read-out: IC50.
Sequence of RbAp48 (Q09028 whole entry): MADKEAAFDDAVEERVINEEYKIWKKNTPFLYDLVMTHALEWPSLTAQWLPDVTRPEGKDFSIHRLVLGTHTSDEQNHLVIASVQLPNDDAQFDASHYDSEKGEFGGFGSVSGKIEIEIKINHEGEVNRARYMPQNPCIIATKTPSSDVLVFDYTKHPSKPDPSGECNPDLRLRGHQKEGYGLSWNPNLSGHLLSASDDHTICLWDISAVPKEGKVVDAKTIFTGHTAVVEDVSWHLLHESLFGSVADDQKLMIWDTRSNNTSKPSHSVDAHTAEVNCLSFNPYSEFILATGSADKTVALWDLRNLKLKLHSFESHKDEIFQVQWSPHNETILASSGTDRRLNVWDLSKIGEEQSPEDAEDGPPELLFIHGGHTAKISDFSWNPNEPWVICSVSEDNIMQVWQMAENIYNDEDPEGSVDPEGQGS
Assay type: binding
Set-up: Full length RbAp48 was cloned; His tag followed by 3C cleavage site (N, cleaved yes); made in house; host or cells: Sf9 insect cells
Description: The binding affinity of our library of synthetic cyclic peptides was evaluated by a competitive fluorescence polarization (FP) assay using a complex formed by peptide 1 and RbAp48. To reduce the length of the peptide it was truncated to the amino acids which seemed most critical according to the crystal structure (residues 676–689, pdb:4pbz). […] We chose to use a cyclization approach to regain affinity, that is, not to induce more interactions but through minimizing the entropic penalty upon binding by reducing the flexibility of the peptide. To this end two amino acids were chosen which are facing one another in the structure (see Figure 1 B/D/E). Two peptides were designed where glutamic acid was used in position 676 (4) or position 680 (5) and lysine in position 688 for both peptides (see Table 1). The macrocycles were formed by connecting the side chains via an amide bond (see Figure 1 D/E). Peptide synthesis was performed on Rink‐amide resin using the Fmoc‐strategy incorporating Fmoc‐L‐Glu(All)‐OH and Fmoc‐L‐Lys(Alloc)‐OH at the sites for cyclization. After completion of the linear synthesis the allyl protecting groups were removed using Pd^0 catalysis and the amide link was formed by using PyBOP. […] Therefore, a range of peptides was synthesized which were cyclized using the same amino acid positions but via a cysteine alkylation strategy (see Figure 1 D/E and Table 1). In this method the residues used for cyclization are replaced with cysteine and benzylic dibromides act as crosslinkers on the unprotected peptides. ^[11] Previous research has shown that such linkers can effectively stabilize cyclic peptides and yield high affinity ligands for protein–protein interaction inhibition. ^[12] Such a linker introduces a xylene group in close vicinity of the hydrophobic patch potentially reconstituting the lost key hydrophobic interactions. To explore a variety of macrocycle conformations we used either ortho‐, meta‐ or para‐substituted dibromides to exchange the linker in both 4 and 5 (see Figure 1 D/E and Table 1). ^[13]
Protein expression and purification
RbAp48 was expressed and purified by the Dortmund Protein Facility. Full length RbAp48 was cloned into a pOPIN vector ligating it to an N-terminal His tag followed by a 3C cleavage site. The protein was expressed from Sf9 cells for 48 h. Cells were harvested and lysed and the protein was purified by loading onto a HisTrap FF crude 5 ml column followed by on-column cleavage using Precission protease. The cleaved protein was then further purified using a HiLoad 26/60 Superdex 200 column.
Fluorescence polarization assay
Fluorescence polarization assays were performed in 384 wells plates in 80 µl volumes. The assay buffer contains 20 mM Tris-HCl, 150 mM NaCl, 0.01% Tween-20 at pH 7.5. The concentration of the fluorescently labelled peptides was 1 nM plates were incubated at room temperature for 30 min before they were read on a Tecan Spark plate reader (λex = 485 nm, λem = 535 nm).
For competitive assays the same conditions were used with a tracer concentration of 1 nM was used and a protein concentration of 15 nM .
An IC50 of 335 ± 65 nM was found for `CC(=O)N[C@H]1CSCc2ccc(cc2)CSC[C@@H](C(=O)N[C@@H](C)C(N)=O)NC(=O)[C@@H]2CCCN2C(=O)[C@H](CCCCN)NC(=O)[C@H](Cc2ccc(O)cc2)NC(=O)[C@@H]2CCCN2C(=O)[C@H](Cc2c[nH]cn2)NC(=O)[C@H](CCCNC(=N)N)NC(=O)[C@H](C)NC(=O)[C@H](C)NC(=O)[C@H](CCCNC(=N)N)NC(=O)[C@H](CCCCN)NC(=O)[C@H]([C@@H](C)O)NC1=O` [Peptide 27] (Ac-CTKRAARHPYKPCA-NH2; linker 1-13 via pXylylene) in this work.
An IC50 greater than 10000 nM was found for `CC(=O)N[C@H]1CSCc2cccc(c2)CSC[C@@H](C(=O)N[C@@H](CC(N)=O)C(N)=O)NC(=O)[C@@H]2CCCN2C(=O)[C@H](CC(C)C)NC(=O)[C@H](Cc2ccc(O)cc2)NC(=O)[C@@H]2CCCN2C(=O)[C@H](Cc2c[nH]cn2)NC(=O)[C@H](CCCNC(=N)N)NC(=O)[C@H](C)NC(=O)[C@H](C)NC(=O)[C@H](Cc2c[nH]cn2)NC(=O)[C@H](Cc2c[nH]c3ccccc23)NC(=O)[C@@H]2CCCN2C(=O)[C@H](CCCNC(=N)N)NC1=O` [Peptide 16] (Ac-CRPWHAARHPYLPCN-NH2; linker 1-14 via mXylylene) in this work.
An IC50 of 265 ± 7.4 nM was found for `CC(=O)N[C@H]1CSCc2cccc(c2)CSC[C@@H](C(=O)N[C@@H](C)C(N)=O)NC(=O)[C@@H]2CCCN2C(=O)[C@H](CCCCN)NC(=O)[C@H](Cc2ccc(O)cc2)NC(=O)[C@@H]2CCCN2C(=O)[C@H](CCCNC(=N)N)NC(=O)[C@H](CCCNC(=N)N)NC(=O)[C@H](C)NC(=O)[C@H](C)NC(=O)[C@H](Cc2c[nH]cn2)NC(=O)[C@H](CCCCN)NC(=O)[C@H]([C@@H](C)O)NC1=O` [Peptide 24] (Ac-CTKHAARRPYKPCA-NH2; linker 1-13 via mXylylene) in this work.
An IC50 of 25 ± 7.3 nM was found for `CC(=O)N[C@H]1CSCc2ccc(cc2)CSC[C@@H](C(=O)N[C@@H](C)C(N)=O)NC(=O)[C@@H]2CCCN2C(=O)[C@H](CCCCN)NC(=O)[C@H](Cc2ccc(O)cc2)NC(=O)[C@@H]2CCCN2C(=O)[C@H](CCCNC(=N)N)NC(=O)[C@H](CCCNC(=N)N)NC(=O)[C@H](C)NC(=O)[C@H](C)NC(=O)[C@H](CCCNC(=N)N)NC(=O)[C@H](CCCCN)NC(=O)[C@@H]2CCCN2C1=O` [Peptide 21] (Ac-CPKRAARRPYKPCA-NH2; linker 1-13 via pXylylene) in this work.
An IC50 greater than 10000 nM was found for `CC(=O)N[C@H]1CSCc2ccc(cc2)CSC[C@@H](C(=O)N[C@@H](CC(N)=O)C(N)=O)NC(=O)[C@@H]2CCCN2C(=O)[C@H](CC(C)C)NC(=O)[C@H](Cc2ccc(O)cc2)NC(=O)[C@@H]2CCCN2C(=O)[C@H](Cc2c[nH]cn2)NC(=O)[C@H](CCCNC(=N)N)NC(=O)[C@H](C)NC(=O)[C@H](C)NC(=O)[C@H](Cc2c[nH]cn2)NC(=O)[C@H](Cc2c[nH]c3ccccc23)NC(=O)[C@@H]2CCCN2C(=O)[C@H](CCCNC(=N)N)NC1=O` [Peptide 17] (Ac-CRPWHAARHPYLPCN-NH2; linker 1-14 via pXylylene) in this work.
An IC50 of 31 ± 3.7 nM was found for `CC(=O)N[C@H]1CSCc2cc(Br)cc(c2)CSC[C@@H](C(=O)N[C@@H](C)C(N)=O)NC(=O)[C@@H]2CCCN2C(=O)[C@H](CCCCN)NC(=O)[C@H](Cc2ccc(O)cc2)NC(=O)[C@@H]2CCCN2C(=O)[C@H](CCCNC(=N)N)NC(=O)[C@H](CCCNC(=N)N)NC(=O)[C@H](C)NC(=O)[C@H](C)NC(=O)[C@H](CCCNC(=N)N)NC(=O)[C@H](CCCCN)NC(=O)[C@H]([C@@H](C)O)NC1=O` [Peptide 30] (Ac-CTKRAARRPYKPCA-NH2; linker 1-13 via X5 (inferred)) in this work.
An IC50 of 40.4 ± 1.5 nM was found for `CC(=O)N[C@H]1CSCc2cc(C)cc(c2)CSC[C@@H](C(=O)N[C@@H](C)C(N)=O)NC(=O)[C@@H]2CCCN2C(=O)[C@H](CCCCN)NC(=O)[C@H](Cc2ccc(O)cc2)NC(=O)[C@@H]2CCCN2C(=O)[C@H](CCCNC(=N)N)NC(=O)[C@H](CCCNC(=N)N)NC(=O)[C@H](C)NC(=O)[C@H](C)NC(=O)[C@H](CCCNC(=N)N)NC(=O)[C@H](CCCCN)NC(=O)[C@H]([C@@H](C)O)NC1=O` [Peptide 31] (Ac-CTKRAARRPYKPCA-NH2; linker 1-13 via TBMB (inferred)) in this work.
An IC50 of 7480 ± 3020 nM was found for `CC(=O)N[C@H]1CSCc2cc3cc(c2)CSC[C@@H](C(=O)N[C@@H](CC(N)=O)C(N)=O)NC(=O)[C@@H]2CCCN2C(=O)[C@H](CC(C)C)NC(=O)[C@H](Cc2ccc(O)cc2)NC(=O)[C@@H]2CCCN2C(=O)[C@H](Cc2c[nH]cn2)NC(=O)[C@H](CCCNC(=N)N)NC(=O)[C@H](C)NC(=O)[C@H](CSC3)NC(=O)[C@H](Cc2c[nH]cn2)NC(=O)[C@H](Cc2c[nH]c3ccccc23)NC(=O)[C@@H]2CCCN2C1=O` [Peptide 35] (Ac-CPWHCARHPYLPCN-NH2; linker 1-5-13 via TBMB) in this work.
An IC50 of 43.8 ± 4.7 nM was found for `CC(=O)N[C@H]1CSCc2cc(C#N)cc(c2)CSC[C@@H](C(=O)N[C@@H](C)C(N)=O)NC(=O)[C@@H]2CCCN2C(=O)[C@H](CCCCN)NC(=O)[C@H](Cc2ccc(O)cc2)NC(=O)[C@@H]2CCCN2C(=O)[C@H](CCCNC(=N)N)NC(=O)[C@H](CCCNC(=N)N)NC(=O)[C@H](C)NC(=O)[C@H](C)NC(=O)[C@H](CCCNC(=N)N)NC(=O)[C@H](CCCCN)NC(=O)[C@H]([C@@H](C)O)NC1=O` [Peptide 29] (Ac-CTKRAARRPYKPCA-NH2; linker 1-13 via X4 (inferred)) in this work.

Same assay, conditions: Table 1; competitive FP, tracer peptide 1 1 nM, RbAp48 15 nM, 20 mM Tris-HCl, 150 mM NaCl, 0.01% Tween-20, pH 7.5, 30 min room temperature; lower limit set by 15 nM protein; read-out: IC50
An IC50 of 77.4 ± 9.6 nM was found for `CC(=O)N[C@H]1CSCc2cc3cc(c2)CSC[C@@H](C(=O)N[C@@H](C)C(N)=O)NC(=O)[C@@H]2CCCN2C(=O)[C@H](CCCCN)NC(=O)[C@H](Cc2ccc(O)cc2)NC(=O)[C@@H]2CCCN2C(=O)[C@H](CCCNC(=N)N)NC(=O)[C@H](CCCNC(=N)N)NC(=O)[C@H](C)NC(=O)[C@H](CSC3)NC(=O)[C@H](C)NC(=O)[C@H](CCCCN)NC(=O)[C@H]([C@@H](C)O)NC1=O` [Peptide 39] (Ac-CTKACARRPYKPCA-NH2; linker 1-5-13 via TBMB) in this work.
An IC50 of 15.6 ± 2.2 nM was found for `CC(=O)N[C@H]1CSCc2cc3cc(c2)CSC[C@H](NC(=O)[C@H](CCCNC(=N)N)NC(=O)[C@H](CCCCN)NC(=O)[C@H]([C@@H](C)O)NC1=O)C(=O)N[C@@H](C)C(=O)N[C@@H](CCCNC(=N)N)C(=O)N[C@@H](CCCNC(=N)N)C(=O)N1CCC[C@H]1C(=O)N[C@@H](Cc1ccc(O)cc1)C(=O)N[C@@H](CCCCN)C(=O)N[C@@H](C)C(=O)N[C@H](C(=O)N[C@@H](C)C(N)=O)CSC3` [Peptide 45] (Ac-CTKRCARRPYKACA-NH2; linker 1-5-13 via TBMB) in this work.
An IC50 of 20.5 ± 1.4 nM was found for `CC(=O)N[C@H]1CSCc2cc3cc(c2)CSC[C@H](NC(=O)[C@H](CCCNC(=N)N)NC(=O)[C@H](CCCCN)NC(=O)[C@H]([C@@H](C)O)NC1=O)C(=O)N[C@@H](C)C(=O)N[C@@H](CCCNC(=N)N)C(=O)N[C@@H](CCCNC(=N)N)C(=O)N1CCC[C@H]1C(=O)N[C@@H](Cc1ccc(O)cc1)C(=O)N[C@@H](CCCCN)C(=O)N1CCC[C@H]1C(=O)N[C@H](C(N)=O)CSC3` [Peptide 46] (Ac-CTKRCARRPYKPC-NH2; linker 1-5-13 via TBMB) in this work.
An IC50 of 77.4 ± 6.5 nM was found for `CC(=O)N[C@H]1CSCc2ccccc2CSC[C@@H](C(=O)N[C@@H](C)C(N)=O)NC(=O)[C@@H]2CCCN2C(=O)[C@H](CCCCN)NC(=O)[C@H](Cc2ccc(O)cc2)NC(=O)[C@@H]2CCCN2C(=O)[C@H](CCCNC(=N)N)NC(=O)[C@H](CCCNC(=N)N)NC(=O)[C@H](C)NC(=O)[C@H](C)NC(=O)[C@H](CCCNC(=N)N)NC(=O)[C@H](CCCCN)NC(=O)[C@H]([C@@H](C)O)NC1=O` [Peptide 6] (Ac-CTKRAARRPYKPCA-NH2; linker 1-13 via oXylylene) in this work.

Same assay, conditions: competitive FP assay
With `CC(=O)N[C@H]1CSCc2ccc(cc2)CSC[C@@H](C(=O)N[C@@H](C)C(N)=O)NC(=O)[C@@H]2CCCN2C(=O)[C@H](CCCCN)NC(=O)[C@H](Cc2ccc(O)cc2)NC(=O)[C@@H]2CCCN2C(=O)[C@H](CCCNC(=N)N)NC(=O)[C@H](CCCNC(=N)N)NC(=O)[C@H](C)NC(=O)[C@H](C)NC(=O)[C@H](CCCNC(=N)N)NC(=O)[C@H](CCCCN)NC(=O)[C@@H]2CCCN2C1=O` [Peptide 21] (Ac-CPKRAARRPYKPCA-NH2; linker 1-13 via pXylylene) the “FP activity in words” value was “IC50 values similar to those of 7 and 8”.
